{"source": "patent US4443619A", "about": "“Chlorocitric acids” (Hoffmann-La Roche Inc., priority 1981, dated 1984)", "key": {"[1]": {"test": "Body weight and food intake in meal-fed rats, 16 day study (Example 19)", "format": "in vivo, Charles River female rats", "settings": "16 days", "procedure": "Two month old Charles River female rats (Charles River Breeding Laboratories, Wilmington, Mass.) were individually housed in wire-bottomedcages in a temperature-regulated (22° C.) light-controlled room (12 hr light, 6 a.m. to 6 p.m. and 12 hr dark, 6 p.m. to 6 a.m.). […] (1) control, (2) (-)-threo-chlorocitric acid (1.0 mmoles/kg, 227 mg/kg) administered by oral intubation 30 min before the 3 hr meal, and (3) (-)-threo-chlorocitric acid (1.1 mmoles/kg, 250 mg/kg) as a dietary admixture for the 3 hr meal. Treatment was continued for 16 days. The amount of body weight gained and food consumed during the study were determined."}, "[2]": {"test": "Body composition of meal-fed rats, 16 day study (Example 20)", "format": "in vivo, Charles River female rats", "settings": "16 days", "procedure": "Two month old Charles River female rats (Charles River Breeding Laboratories, Wilmington, Mass.) were individually housed in wire-bottomedcages in a temperature-regulated (22° C.) light-controlled room (12 hr light, 6 a.m. to 6 p.m. and 12 hr dark, 6 p.m. to 6 a.m.). […] (1) control, (2) (-)-threo-chlorocitric acid (1.0 mmoles/kg, 227 mg/kg) administered by oral intubation 30 min before the 3 hr meal, and (3) (-)-threo-chlorocitric acid (1.1 mmoles/kg, 250 mg/kg as a dietary admixture for the 3 hr meal. Treatment was continued for 16 days. After 16 days of treatment, rats were killed by decapitation and blood was removed. […] C. Sullivan, et al, Am. J. Clinical Nutrition, 30 767 (1977). […] Total carcass lipid data are expressed in grams of percentages of carcass weight. An aliquot of saponified carcass extract was neutralized and total carcass nitrogen was determined using the Kjeldahl procedure described in \"Hawks\" Physiological Chemistry,\" B. L. Oser, ed., McGraw Book Co., New York, N.Y., 1965, page 1214. Carcass protein data are expressed in grams and percentages of carcass weight."}, "[3]": {"test": "Anorectic activity, body weight and carcass analysis in mammals (summary statements)", "format": "in vivo"}, "[4]": {"test": "Effect of stereoisomers of chlorocitric acid on food consumption in meal-fed rats (Example 14)", "format": "in vivo, Charles River female rats", "settings": "mean ± S.E.", "procedure": "Animals were fasted 48 hr, then meal-fed the 70% glucose diet described by A. C. […] Following 5 to 12 days alimentation on the meal-feeding regimen, rats were dosed with the appropriate compounds orally by intubation 1/2 hr before the 3 hr meal. Food cups were weighed immediately after the meal. The control group consisted of 5 to 10 rats, while the experimental group consisted of 4 to 6 rats."}, "[5]": {"test": "Anorectic activities of stereoisomers: 3-day food consumption and body weight gain in meal-fed rats", "format": "in vivo, Charles River female rats", "settings": "1.32 mmoles/kg oral, 3 days, mean ± S.E.", "procedure": "Charles River female rats (Charles River Breeding Laboratories, Wilmington, Mass.), weighing 196 to 210 g, were individually housed in wire-bottomed cages in a temperature-regulated (22° C.) light-controlled room (12 hr light, 6 a.m. to 6 p.m. and 12 hr dark, 6 p.m. to 6 a.m.). Animals were fasted 48 hr, then meal-fed a 70% glucose diet from 8 to 11 a.m. Following 5 to 12 days alimentation on the meal-feeding regimen, rats were dosed with the appropriate compounds orally by intubation 1/2 hr before the 3 hr meal for 3 days. The total food consumption and body weight gained during the 3 day period were determined. The control group consisted of 16 rats, while the experimental group consists of 8 rats."}, "Cholesterol Synthesis": {"test_system": "Cholesterol Synthesis", "test": "Cholesterol synthesis in isolated rat hepatocytes (Example 23)", "format": "cell-based, rat (female Charles River)", "settings": "2 mM, 60 min, 37° C., 2000 µM", "procedure": "Female Charles River rats were fasted 48 hr, then meal-fed a 1% corn oil, 70% glucose diet for 7 to 14 days from 8 to 11 a.m. The isolated rat hepatocytes were prepared by perfusing the liver in situ. The hepatocytes were incubated in an oscillating water bath at 37° C. for 60 min. […] All incubations were done in triplicate and all experiments were repeated at least twice. […] The contents of the center well were transferred to scintillation counting fluid and ^14 CO2 content was determined. […] The media was then acidified, extracted with hexane, and the extract counted (to determine the rate of lipogenesis). The conversion of ^3 H2 O and [^14 C]alanine into fatty acids or sterols was determined in a PDS/3, Mark II liquid scintillation counting system."}, "[6]": {"test": "Body weight gain in 8 hour meal-fed Zucker rats (Example 18)", "format": "in vivo, lean (Fa/-) and obese (fa/fa)", "settings": "0.66 mmoles/kg b.i.d. oral, 6 days, mean ± S.E.", "procedure": "Lean (Fa/-) Zucker rats and obese (fa/fa) Zucker rats of both sexes were individually housed in wire-bottomed cages in a temperature-regulated (22° C.) light-controlled room (12 hr light, 6 a.m. to 6 p.m. and 12 hr dark, 6 p.m. to 6 a.m.). The animals were fed a high carbohydrate (70% glucose) diet ad libitum for 13 days, dosed with the indicated compounds by oral intubation for 9 days and allowed to recover for 3 days. The animals were then meal fed from 8 a.m. to 4 p.m. for a period of 5 days, following which they were continued on the same meal schedule for an additional 6 days. During the 6-day period, the animals were administered the indicated compounds by oral intubation at 8 a.m. and 12 p.m. Body weight gain during the 6-day period was determined."}, "[7]": {"settings": "dietary admixture, 1.1 mmoles (250 mg)/kg/day"}, "[8]": {"settings": "oral intubation, 1.0 mmoles (227 mg)/kg/day"}, "[9]": {"settings": "dietary admixture, 1.1 mmoles (250 mg)/kg"}, "[10]": {"settings": "oral intubation, 1.0 mmoles (227 mg)/kg"}}, "data": [{"compound": "O=C(O)C[C@@](O)(C(=O)O)[C@@H](Cl)C(=O)O", "note": "[(-)-threo-Chlorocitric acid, (-)-threo-chlorocitric acid]", "values": [{"measurement": "CBWG (cumulative body weight gain)", "setting": "[1]; [7]", "result": "-8 ± 6", "unit": "g"}, {"measurement": "CFC (cumulative food consumption)", "setting": "[1]; [7]", "result": "157 ± 9", "unit": "g"}, {"measurement": "FBW (final body weight)", "setting": "[1]; [7]", "result": "184 ± 8", "unit": "g"}, {"measurement": "CBWG (cumulative body weight gain)", "setting": "[1]; [8]", "result": "-27 ± 4", "unit": "g"}, {"measurement": "CFC (cumulative food consumption)", "setting": "[1]; [8]", "result": "139 ± 6", "unit": "g"}, {"measurement": "FBW (final body weight)", "setting": "[1]; [8]", "result": "163 ± 5", "unit": "g"}, {"measurement": "Carcass Lipid, % of carcass weight", "setting": "[2]; [9]", "result": "4.01 ± 0.45 % of carcass weight"}, {"measurement": "Carcass Lipid, total", "setting": "[2]; [9]", "result": "7.01 ± 0.92", "unit": "g"}, {"measurement": "Carcass Nitrogen, % of carcass weight", "setting": "[2]; [9]", "result": "4.10 ± 0.14 % of carcass weight"}, {"measurement": "Carcass Nitrogen, total", "setting": "[2]; [9]", "result": "7.16 ± 0.29", "unit": "g"}, {"measurement": "Carcass Weight", "setting": "[2]; [9]", "result": "176 ± 8", "unit": "g"}, {"measurement": "Carcass Lipid, % of carcass weight", "setting": "[2]; [10]", "result": "1.94 ± 0.13 % of carcass weight"}, {"measurement": "Carcass Lipid, total", "setting": "[2]; [10]", "result": "2.74 ± 0.19", "unit": "g"}, {"measurement": "Carcass Nitrogen, % of carcass weight", "setting": "[2]; [10]", "result": "4.27 ± 0.22 % of carcass weight"}, {"measurement": "Carcass Nitrogen, total", "setting": "[2]; [10]", "result": "6.57 ± 0.30", "unit": "g"}, {"measurement": "Carcass Weight", "setting": "[2]; [10]", "result": "155 ± 4", "unit": "g"}, {"measurement": "anorectic activity as measured by reduction in food consumption", "setting": "[3]; acute meal-fed assay utilizing three diets and pyramiding dose studies, compared with hydroxycitric acid", "result": "significantly more active"}, {"measurement": "carcass analysis: origin of weight loss", "setting": "[3]; chronic studies", "result": "weight loss was due to reduction in body lipids"}, {"measurement": "appetite suppression and reduced body weight gain", "setting": "[3]; short- and long-term chronic studies, compared with hydroxycitric acid or citric acid", "result": "suppressed appetite and reduced body weight gain in mammals more efficaciously than hydroxycitric acid or citric acid"}, {"measurement": "Food consumption", "setting": "[4]; 0.66 mmoles/kg oral, control 8.2 ± 1.2", "result": "4.8 ± 0.7", "unit": "g"}, {"measurement": "Food consumption", "setting": "[4]; 2.63 mmoles/kg oral, control 13.5 ± 0.8", "result": "2.2 ± 0.5", "unit": "g"}, {"measurement": "3-Day Body Weight Gain", "setting": "[5]", "result": "-22.4 ± 2.3", "unit": "g"}, {"measurement": "3-Day Food Consumption", "setting": "[5]", "result": "10.5 ± 1.3", "unit": "g"}, {"measurement": "Cholesterol Synthesis, 3H2O converted", "setting": "Cholesterol Synthesis", "result": "98 % of control"}, {"measurement": "Body Weight Gain", "setting": "[6]; Fa/- lean", "result": "-20.7 ± 2.2", "unit": "g"}, {"measurement": "Body Weight Gain", "setting": "[6]; fa/fa obese", "result": "-33.5 ± 3.1", "unit": "g"}]}]}
